In patent US20230116972A1, “CD38 MODULATORS AND METHODS OF USE THEREOF” (Cytokinetics, Inc., priority 2021, published 2023):

Legend:
mouse CD38 = biological target: T1, mouse CD38 (Mus musculus, UniProt P56528); assay: mouse recombinant CD38 enzyme assay (hydrolysis of NAD+); type: biochemical; conditions: read-out: mCD38 BioChem IC50
T1 sequence (P56528 1-304): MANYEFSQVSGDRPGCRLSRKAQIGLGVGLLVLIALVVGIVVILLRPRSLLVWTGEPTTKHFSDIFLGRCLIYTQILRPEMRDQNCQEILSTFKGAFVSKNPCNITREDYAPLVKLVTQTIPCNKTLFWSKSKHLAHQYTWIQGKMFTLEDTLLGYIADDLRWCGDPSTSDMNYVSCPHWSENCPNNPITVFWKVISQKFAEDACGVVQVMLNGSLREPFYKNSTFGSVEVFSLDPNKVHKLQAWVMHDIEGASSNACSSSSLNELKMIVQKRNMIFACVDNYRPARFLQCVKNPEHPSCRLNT
Description: (§1) Compounds described herein were assayed for their ability to inhibit the hydrolysis of NAD+ by the protein CD38. The human and mouse recombinant enzyme assays measure the inhibition of the enzyme activity by compounds using recombinant enzymes and substrates in a buffered cell-free system. The assay conditions closely mimic cellular environments. Dose responses were measured using an assay to detect the hydrolysis of NAD+. All experiments were performed in the 384-well format. […] Enzyme reactions were initiated with the addition of 10 μL of a solution containing NAD+ substrate. Subsequent detection of remaining NAD+ was determined by first converting NAD+ to NADH using alcohol dehydrogenase, then using the resulting NADH to reduce resazurine to the fluorescent product resorufin. […] Following an incubation of 60 min at ambient temperature, 10 μL of 120 mM ethanol+20 U/ml alcohol dehydrogenase+30 mM semicarbazide+0.03 mM CD38 inhibitor in 50 mM HEPES, pH 7.5, 0.2 mg/ml BSA, was added and incubated at ambient temperature for 15 min. Then 10 μl 0.32 mM NaOH was added to stop the ADH reaction (plates incubated at ambient temperature for 15 min), followed by 30 μL of 0.05 mM resazurine+1000 mU/ml Diaphorase in 200 mM Tris-HCl, pH 7.7 for 15 min at ambient temperature. The plates were read for fluorescence (Excitation/Emission=540 nm/590 nm) using an EnVision plate reader. […] Note that, in Table 4, the “Compound No” corresponds to the compound numbers in Table 1.

human CD38 = biological target: T2, human CD38 (Homo sapiens, UniProt P28907); assay: human recombinant CD38 enzyme assay (hydrolysis of NAD+); type: biochemical; conditions: human recombinant CD38, 0.4 nM enzyme, 62.5 μM NAD+; read-out: hCD38 BioChem IC50
T2 sequence (P28907 1-300): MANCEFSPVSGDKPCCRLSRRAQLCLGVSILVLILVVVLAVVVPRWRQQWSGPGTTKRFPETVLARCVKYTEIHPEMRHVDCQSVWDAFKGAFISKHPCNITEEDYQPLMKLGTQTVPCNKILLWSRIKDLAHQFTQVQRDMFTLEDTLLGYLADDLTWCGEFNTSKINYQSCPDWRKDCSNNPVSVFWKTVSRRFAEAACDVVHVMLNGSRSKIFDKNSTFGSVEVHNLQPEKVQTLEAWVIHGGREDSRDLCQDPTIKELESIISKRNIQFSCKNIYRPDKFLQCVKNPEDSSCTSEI
Description: as §1

SMILES | IC50 (mouse CD38) [nM] | IC50 (human CD38) [nM]
COCCO[C@@H]1CC[C@@H](NC(=O)c2cc(C3CCOCC3)nc(-c3cncn3C)n2)C1 [Compound 352, N-((1R,3R)-3-(2-methoxyethoxy)cyclopentyl)-2-(1-methyl-1H-imidazol-5-yl)-6-(tetrahydro-2H-pyran-4-yl)pyrimidine-4-carboxamide] | 20.6 | 25.4
O=C(N[C@H]1C[C@@H](c2ccccc2)C1)c1nccc(-n2ccnc2)n1 [Compound 212, 4-(1H-imidazol-1-yl)-N-((1s,3s)-3-phenylcyclobutyl)pyrimidine-2-carboxamide] | 105 | 833
CO[C@H]1CC[C@H](NC(=O)c2ccnc(-c3cncs3)n2)CC1 [Compound 113, N-((1r,4r)-4-methoxycyclohexyl)-2-(thiazol-5-yl)pyrimidine-4-carboxamide] | 166 | 569
CC(C)O[C@H]1C[C@H](NC(=O)c2nccc(-c3cncn3C)n2)C1 [Compound 320, N-((1r,3r)-3-isopropoxycyclobutyl)-4-(1-methyl-1H-imidazol-5-yl)pyrimidine-2-carboxamide] | 218 | 949
CO[C@H]1CC[C@H](NC(=O)c2cc(C3CCC3)nc(-n3ccnc3)n2)CC1 [Compound 184, 6-cyclobutyl-2-(1H-imidazol-1-yl)-N-((1r,4r)-4-methoxycyclohexyl)pyrimidine-4-carboxamide] | 16 | 56
CO[C@H]1CC[C@H](NC(=O)c2cc(C(C)C)nc(-n3ccnc3)n2)CC1 [Compound 167, 2-(1H-imidazol-1-yl)-6-isopropyl-N-((1r,4r)-4-methoxycyclohexyl)pyrimidine-4-carboxamide] | 46 | 214
Cn1cncc1-c1ccnc(C(=O)NC2CCC(C)(C)OC2)n1 (stereo not drawn) [Compound 278, N-(6,6-dimethyltetrahydro-2H-pyran-3-yl)-4-(1-methyl-1H-imidazol-5-yl)pyrimidine-2-carboxamide] | 67.9 | 490
COc1cc(-n2ccnc2)nc(C(=O)N[C@H]2CC[C@H](OC)CC2)n1 [Compound 208, 4-(1H-imidazol-1-yl)-6-methoxy-N-((1r,4r)-4-methoxycyclohexyl)pyrimidine-2-carboxamide] | 531 | 961
CO[C@H]1CC[C@H](NC(=O)c2cc(C(C)(C)O)nc(-c3cncn3C)n2)CC1 [Compound 178, 6-(2-Hydroxypropan-2-yl)-N-((1r,4r)-4-methoxycyclohexyl)-2-(1-methyl-1H-imidazol-5-yl)pyrimidine-4-carboxamide] | 13 | 57
COc1ccc(NC(=O)c2nccc(-c3cncn3C)n2)cn1 [Compound 356, N-(6-methoxypyridin-3-yl)-4-(1-methyl-1H-imidazol-5-yl)pyrimidine-2-carboxamide] | 10 | 4.3
CO[C@H]1CC[C@H](NC(=O)c2nc(-c3cncn3C)cnc2C)CC1 [Compound 298, N-((1r,4r)-4-methoxycyclohexyl)-3-methyl-6-(1-methyl-1H-imidazol-5-yl)pyrazine-2-carboxamide] | 166 | 319
O=C(Nc1ccc(C(F)F)nc1)c1cc(N2CCCC2)cc(-c2cncs2)n1 [Compound 179, N-(6-(Difluoromethyl)pyridin-3-yl)-4-(pyrrolidin-1-yl)-6-(thiazol-5-yl)picolinamide] | 142 | 1380
O=C(NC1CCC(F)(F)CC1)c1cc(C2CCC2)nc(-n2ccnc2)n1 [Compound 185, 6-cyclobutyl-N-(4,4-difluorocyclohexyl)-2-(1H-imidazol-1-yl)pyrimidine-4-carboxamide] | 14 | 30
CO[C@H]1C[C@H](NC(=O)c2nccc(-c3cncn3C)n2)C1 [Compound 297, N-((1r,3r)-3-methoxycyclobutyl)-4-(1-methyl-1H-imidazol-5-yl)pyrimidine-2-carboxamide] | 90.8 | 414
O=C(NC1CC2(COC2)C1)c1nccc(-n2ccnc2)n1 [Compound 290, 4-(1H-imidazol-1-yl)-N-(2-oxaspiro[3.3]heptan-6-yl)pyrimidine-2-carboxamide] | 191 | 1220
CO[C@H]1CC[C@H](NC(=O)c2cc(C)cc(-c3cncs3)n2)CC1 [Compound 133, N-(4-methoxycyclohexyl)-4-methyl-6-(thiazol-5-yl)picolinamide] | 135 | 1730
Cc1cnc(-c2cncn2C)nc1C(=O)N[C@H]1CC[C@H](O)CC1 [Compound 321, 5-Methyl-2-(3-methylimidazol-4-yl)-N-[(1r,4r)-4-hydroxycyclohexyl]pyrimidine-4-carboxamide] | 32.2 | 133
Cn1cncc1-c1ccnc(C(=O)NC2CC3(COC3)C2)n1 [Compound 306, 4-(1-methyl-1H-imidazol-5-yl)-N-(2-oxaspiro[3.3]heptan-6-yl)pyrimidine-2-carboxamide] | 81.7 | 357

Second part, the molecule after the results:

IC50 (mouse CD38) [nM] | IC50 (human CD38) [nM] | SMILES
1.4 | 3.4 | Cc1cnc(-c2cncn2C)nc1C(=O)Nc1ccc(C(F)(F)F)nc1 [Compound 326, 5-methyl-2-(1-methyl-1H-imidazol-5-yl)-N-(6-(trifluoromethyl)pyridin-3-yl)pyrimidine-4-carboxamide]
5.4 | 12.4 | Cn1cncc1-c1nc(C(=O)N[C@H]2CC[C@H](OC(F)(F)F)CC2)cc(C2CCOCC2)n1 [Compound 334, 2-(1-methyl-1H-imidazol-5-yl)-6-(tetrahydro-2H-pyran-4-yl)-N-((1r,4r)-4-(trifluoromethoxy)cyclohexyl)pyrimidine-4-carboxamide]
2.6 | 22.1 | CO[C@H]1CC[C@H](NC(=O)c2cc(C3CC4(COC4)C3)nc(-c3cncn3C)n2)CC1 [Compound 327, N-((1r,4r)-4-methoxycyclohexyl)-2-(1-methyl-1H-imidazol-5-yl)-6-(2-oxaspiro[3.3]heptan-6-yl)pyrimidine-4-carboxamide]
2 | 17.3 | Cn1cncc1-c1nc(C(=O)N[C@H]2CC[C@H](OCC(F)(F)F)CC2)cc(C2CCC(F)(F)CC2)n1 [Compound 339, 6-(4,4-difluorocyclohexyl)-2-(1-methyl-1H-imidazol-5-yl)-N-((1r,4r)-4-(2,2,2-trifluoroethoxy)cyclohexyl)pyrimidine-4-carboxamide]
4.7 | 26 | CO[C@H]1CC[C@H](NC(=O)c2cc(C3(O)CCC(F)(F)CC3)nc(-c3cncn3C)n2)CC1 [Compound 331, 6-(4,4-difluoro-1-hydroxycyclohexyl)-N-((1r,4r)-4-methoxycyclohexyl)-2-(1-methyl-1H-imidazol-5-yl)pyrimidine-4-carboxamide]
6.2 | 81.9 | Cn1cncc1-c1cc(C(F)F)nc(C(=O)N[C@H]2CC[C@H](O)CC2)n1 [Compound 347, 4-(difluoromethyl)-N-((1r,4r)-4-hydroxycyclohexyl)-6-(1-methyl-1H-imidazol-5-yl)pyrimidine-2-carboxamide]
1 | 2.5 | Cn1cncc1-c1nc(C(=O)Nc2ccc(C(F)F)nc2)cc(C2CC3(COC3)C2)n1 [Compound 348, N-(6-(difluoromethyl)pyridin-3-yl)-2-(1-methyl-1H-imidazol-5-yl)-6-(2-oxaspiro[3.3]heptan-6-yl)pyrimidine-4-carboxamide]
9.8 | 5 | Cn1cncc1-c1ccnc(C(=O)Nc2ccc(OC3CCC(F)(F)CC3)nc2)n1 [Compound 330, N-(6-((4,4-difluorocyclohexyl)oxy)pyridin-3-yl)-4-(1-methyl-1H-imidazol-5-yl)pyrimidine-2-carboxamide]
1.3 | 12.3 | Cn1cncc1-c1nc(C(=O)Nc2ccc(C(C)(C)O)nc2)cc(C2CCC(F)(F)CC2)n1 [Compound 336, 6-(4,4-difluorocyclohexyl)-N-(6-(2-hydroxypropan-2-yl)pyridin-3-yl)-2-(1-methyl-1H-imidazol-5-yl)pyrimidine-4-carboxamide]
